Columns and labels:
Format in all cases: in vivo
[1] = test system: Spodoptera littoralis; assay: Spodoptera littoralis (Egyptian cotton leaf worm) cotton leaf disc test; conditions: foliar, 72 h, read-out: control (at least one of mortality, anti-feedant effect, and growth inhibition)
In short: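 Five first-instar larvae per disc were placed on dried, sprayed cotton leaf discs held on agar. Test solutions were aqueous, made from 10′000 ppm DMSO stocks. At day 3, control was counted when mortality, feeding deterrence or growth inhibition exceeded the untreated discs.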

[2] = test system: Plutella xylostella; assay: Plutella xylostella (diamond back moth) artificial diet test; conditions: 120 h, read-out: effect in at least one of the two categories (mortality or growth inhibition)
In short: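 At a 200 ppm rate, test solutions were applied to artificial diet and allowed to dry before second-instar larvae were added. Five days later, larval mortality and growth inhibition were rated against untreated samples.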

[3] = test system: Diabrotica Balteata; assay: Diabrotica balteata (corn root worm) maize sprout test; conditions: 96 h, read-out: effect in at least one of the two categories (mortality or growth inhibition)
In short: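 Scoring covered both mortality and growth inhibition relative to untreated controls, 4 days post-infestation. Test solutions at 200 ppm, diluted in water from 10′000 ppm DMSO stocks, were sprayed onto agar-held maize sprouts, which after drying received 6 to 10 L2 larvae each well.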

[4] = test system: Thrips tabaci; assay: Thrips tabaci (onion thrips) sunflower leaf disc test; conditions: foliar, 144 h
Experimental: Thrips tabaci (Onion Thrips):
(§1) Sunflower leaf discs were placed on agar in 24-well microtiter plates and sprayed with aqueous test solutions prepared from 10′000 ppm DMSO stock solutions. After drying the leaf discs were infested with a thrips population of mixed ages. The samples were assessed for mortality 6 days after infestation.

[5] = test system: Tetranychus urticae; assay: Tetranychus urticae (two-spotted spider mite) bean leaf disc test; conditions: foliar, 192 h
Experimental: Tetranychus urticae (Two-Spotted Spider Mite):
as §1, with “Bean” for “Sunflower”, “discs” for “discs were placed”, “were” for “and”, “mite” for “thrips”, “on mixed population (mobile stages) 8” for “6”

[6] = test system: Myzus persicae; assay: Myzus persicae (green peach aphid) sunflower leaf disc test; conditions: foliar, 144 h
Experimental: Myzus persicae (Green Peach Aphid):
Sunflower leaf discs were placed on agar in a 24-well microtiter plate and sprayed with test solutions at an application rate of 200 ppm. After drying, the leaf discs were infested with an aphid population of mixed ages. After an incubation period of 6 days after treatment, samples were checked for mortality. The following compounds gave at least 80% mortality of Myzus persicae: […]

Cc1cc(C2=NO[C@@](c3cc(Cl)c(Cl)c(Cl)c3)(C(F)(F)F)C2)ccc1C(=O)NC1CC(Br)=NO1 (stereo partly drawn) [Compound A125, N-(3-bromo-4,5-dihydroisoxazol-5-yl)-2-methyl-4-[(5S)-5-(3,4,5-trichlorophenyl)-5-(trifluoromethyl)-4H-isoxazol-3-yl]benzamide]
≥ 80%: percent control (mortality, anti-feedant effect or growth inhibition) at 200 ppm [1] | percent effect (mortality or growth inhibition) at 200 ppm [2] | percent effect (mortality or growth inhibition) at 200 ppm [3] | mortality at 200 ppm [4] | mortality at 200 ppm [5] | mortality at 200 ppm [6]

COC1=NOC(NC(=O)c2ccc(C3=NOC(c4cc(Cl)cc(Cl)c4)(C(F)(F)F)C3)cc2C)C1 (stereo not drawn) [Compound A126]
≥ 80%: percent control (mortality, anti-feedant effect or growth inhibition) at 200 ppm [1] | percent effect (mortality or growth inhibition) at 200 ppm [2] | percent effect (mortality or growth inhibition) at 200 ppm [3] | mortality at 200 ppm [4] | mortality at 200 ppm [5] | mortality at 200 ppm [6]

Cc1cc(C2=NO[C@@](c3cc(Cl)c(Cl)c(Cl)c3)(C(F)(F)F)C2)ccc1C(=O)NC1CC(OCC(F)F)=NO1 (stereo partly drawn) [Compound A127, N-[3-(2,2-difluoroethoxy)-4,5-dihydroisoxazol-5-yl]-2-methyl-4-[(5S)-5-(3,4,5-trichlorophenyl)-5-(trifluoromethyl)-4H-isoxazol-3-yl]benzamide]
≥ 80%: percent control (mortality, anti-feedant effect or growth inhibition) at 200 ppm [1] | percent effect (mortality or growth inhibition) at 200 ppm [2] | percent effect (mortality or growth inhibition) at 200 ppm [3] | mortality at 200 ppm [4] | mortality at 200 ppm [5] | mortality at 200 ppm [6]

Cc1cc(C2=NO[C@@](c3cc(Cl)cc(Cl)c3)(C(F)(F)F)C2)ccc1C(=O)NC1CC(OCC(F)F)=NO1 (stereo partly drawn) [Compound A128]
≥ 80%: percent control (mortality, anti-feedant effect or growth inhibition) at 200 ppm [1] | percent effect (mortality or growth inhibition) at 200 ppm [2] | percent effect (mortality or growth inhibition) at 200 ppm [3] | mortality at 200 ppm [4] | mortality at 200 ppm [5] | mortality at 200 ppm [6]

Cc1cc(C2=NO[C@@](c3cc(Cl)c(Cl)c(Cl)c3)(C(F)(F)F)C2)ccc1C(=O)NC1CC(OCC(F)(F)F)=NO1 (stereo partly drawn) [Compound A129, 2-methyl-4-[(5S)-5-(3,4,5-trichlorophenyl)-5-(trifluoromethyl)-4H-isoxazol-3-yl]-N-[3-(2,2,2-trifluoroethoxy)-4,5-dihydroisoxazol-5-yl]benzamide]
≥ 80%: percent control (mortality, anti-feedant effect or growth inhibition) at 200 ppm [1] | percent effect (mortality or growth inhibition) at 200 ppm [2] | percent effect (mortality or growth inhibition) at 200 ppm [3] | mortality at 200 ppm [4] | mortality at 200 ppm [5] | mortality at 200 ppm [6]

Cc1cc(C2=NO[C@@](c3cc(Cl)cc(Cl)c3)(C(F)(F)F)C2)ccc1C(=O)NC1CC(OCC(F)(F)F)=NO1 (stereo partly drawn) [Compound A130, 4-[(5S)-5-(3,5-dichlorophenyl)-5-(trifluoromethyl)-4H-isoxazol-3-yl]-2-methyl-N-[3-(2,2,2-trifluoroethoxy)-4,5-dihydroisoxazol-5-yl]benzamide]
≥ 80%: percent control (mortality, anti-feedant effect or growth inhibition) at 200 ppm [1] | percent effect (mortality or growth inhibition) at 200 ppm [2] | percent effect (mortality or growth inhibition) at 200 ppm [3] | mortality at 200 ppm [4] | mortality at 200 ppm [5] | mortality at 200 ppm [6]

CCOC1=NOC(N(C(=O)OC(C)(C)C)C(=O)c2ccc(C3=NO[C@@](c4cc(Cl)c(F)c(Cl)c4)(C(F)(F)F)C3)cc2C)C1 (stereo partly drawn) [Compound A132, tert-butyl N-[4-[(5S)-5-(3,5-dichloro-4-fluoro-phenyl)-5-(trifluoromethyl)-4H-isoxazol-3-yl]-2-methyl-benzoyl]-N-(3-ethoxy-4,5-dihydroisoxazol-5-yl)carbamate]
≥ 80%: percent control (mortality, anti-feedant effect or growth inhibition) at 200 ppm [1] | percent effect (mortality or growth inhibition) at 200 ppm [2] | percent effect (mortality or growth inhibition) at 200 ppm [3] | mortality at 200 ppm [4] | mortality at 200 ppm [5] | mortality at 200 ppm [6]

Reference: patent publication US10499642B2, “Isoxazoline-substituted benzamides and analogues as insecticides” (SYNGENTA PARTICIPATIONS AG, priority 2015, dated 2019)
